In ChEMBL document CHEMBL4673357, “Antimicrobial Furancarboxylic Acids from a Penicillium sp” (2020) one finds MIC data, which are given here for 14 compounds.

What all share (type): functional
The test system of one experiment is Candida albicans. As to the kind of experiment: Antifungal activity against Candida albicans ATCC 10231 assessed as reduction in microbial growth after 18 hrs by microbroth dilution method. (In general: Broth dilution looks for growth in wells or tubes with falling amounts of substance.)
The next experiment deals with Staphylococcus aureus. As to the kind of experiment: Antibacterial activity against Staphylococcus aureus ATCC 25923 assessed as reduction in microbial growth after 18 hrs by microbroth dilution method.
Another experiment concerns Escherichia coli. As to the kind of experiment: Antibacterial activity against Escherichia coli ATCC 35218 assessed as reduction in microbial growth after 18 hrs by microbroth dilution method.

As to `C[C@@H]1[C@H](O)[C@@H](C)/C=C/C=C/C=C/C=C/C=C/C=C/C=C/[C@H](O[C@@H]2O[C@H](C)[C@@H](O)[C@H](N)[C@@H]2O)C[C@@H]2O[C@](O)(C[C@@H](O)C[C@@H](O)[C@H](O)CC[C@@H](O)C[C@@H](O)CC(=O)O[C@H]1C)C[C@H](O)[C@H]2C(=O)O` [AMPHOTERICIN B], the MIC (usually the lowest concentration found to suppress growth) in the experiment on Candida albicans was 0.1 µg/mL.

Turning to `COC(=O)C1=C(c2ccsc2C)O[C@](C)(/C=C/C=C/[C@H](C)O)C1=O`, the minimum inhibitory concentration (MIC) with Candida albicans was 7 µg/mL; in the experiment on Staphylococcus aureus it was 3.5 µg/mL; with Escherichia coli, 7 µg/mL.

On to `CN[C@@H]1[C@H](O[C@H]2[C@H](O[C@H]3[C@H](O)[C@@H](O)[C@H](N=C(N)N)[C@@H](O)[C@@H]3N=C(N)N)O[C@@H](C)[C@]2(O)C=O)O[C@@H](CO)[C@H](O)[C@H]1O` [STREPTOMYCIN], for which the minimal inhibitory concentration (MIC) came out at 0.1 µg/mL in the experiment with Staphylococcus aureus and 2.3 µg/mL in the experiment on Escherichia coli.

In the case of `CCCC1=C(C(=O)OC)C(=O)[C@@](C)(/C=C/CC[C@H](C)O)O1`, the figures for the MIC with Candida albicans, in the experiment on Staphylococcus aureus and in the experiment with Escherichia coli were 5.9 µg/mL, 3 µg/mL and 3 µg/mL, respectively.

`COC(=O)C1=C(c2ccsc2C)O[C@](C)(/C=C/C=C/[C@@H](C)O)C1=O`: the minimum inhibitory concentration (MIC) with Candida albicans came out at 7 µg/mL; in the experiment with Staphylococcus aureus, 3.5 µg/mL; in the experiment with Escherichia coli, 7 µg/mL.

As for `CCCC1=C(C(=O)OC)C(=O)[C@@](C)(/C=C/CC[C@@H](C)O)O1`, the minimum inhibitory concentration (MIC) with Candida albicans stood at 5.9 µg/mL; in the experiment with Staphylococcus aureus, 3 µg/mL; with Escherichia coli, 3 µg/mL.

Turning to `COC(=O)C1=C(C)O[C@](C)(/C=C/CC[C@@H](C)O)C1=O`, the minimum inhibitory concentration (MIC) was 5.4 µg/mL in the experiment with Candida albicans, 2.7 µg/mL in the experiment with Staphylococcus aureus and 5.4 µg/mL with Escherichia coli.

Take `CCCC1=C(C(=O)OC)C(=O)[C@@](C)(/C=C/C=C/[C@H](C)O)O1`: the results for the MIC in the experiment with Candida albicans, in the experiment with Staphylococcus aureus and with Escherichia coli were 4.4 µg/mL, 2.9 µg/mL and 2.9 µg/mL, respectively.

Consider `CC/C=C/C=C/[C@@]1(C)OC(c2cc(C(=O)O)sc2C)=C(C(=O)OC)C1=O`, for which the MIC in the experiment with Candida albicans is 3.8 µg/mL; in the experiment on Staphylococcus aureus, 1.9 µg/mL; in the experiment on Escherichia coli, 0.9 µg/mL.

In the case of `COC(=O)C1=C(c2ccsc2C)O[C@](C)(/C=C/CC[C@H](C)O)C1=O`, the MIC in the experiment with Candida albicans turned out to be 7 µg/mL; with Staphylococcus aureus, 3.5 µg/mL; in the experiment with Escherichia coli it was 3.5 µg/mL.

For the compound `CC/C=C/C=C/[C@@]1(C)OC(c2ccsc2C)=C(C(=O)OC)C1=O`, the MIC is 3.3 µg/mL with Candida albicans, 1.7 µg/mL in the experiment with Staphylococcus aureus and 1.7 µg/mL in the experiment with Escherichia coli.

For `CCCC1=C(C(=O)OC)C(=O)[C@@](C)(/C=C/C=C/[C@@H](C)O)O1`, the values for the MIC with Candida albicans, with Staphylococcus aureus and with Escherichia coli were 4.4 µg/mL, 2.9 µg/mL and 2.9 µg/mL, respectively.

Regarding `COC(=O)C1=C(C)O[C@](C)(/C=C/CC[C@H](C)O)C1=O`, the figures for the minimum inhibitory concentration (MIC) with Candida albicans, with Staphylococcus aureus and in the experiment with Escherichia coli were 5.4 µg/mL, 2.7 µg/mL and 5.4 µg/mL, respectively.

As for `COC(=O)C1=C(c2ccsc2C)O[C@](C)(/C=C/CC[C@@H](C)O)C1=O`, the MIC is 7 µg/mL in the experiment on Candida albicans, 3.5 µg/mL with Staphylococcus aureus and 3.5 µg/mL with Escherichia coli.
